Molecular target: human Cat S (Homo sapiens (Human), UniProt P25774)
Test: Cathepsin enzyme inhibition assay (fluorogenic peptide substrate Z-Val-Val-Arg-AMC)
Assay type: biochemical
Conditions: enzyme 1 nM, substrate 20 μM, pH 6.5
In short: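 Enzymes at 1 nM in 100 mM potassium phosphate pH 6.5, 5 mM EDTA, 0.001% Triton X-100, 5 mM DTT; reaction started with 20 µM Z-Val-Val-Arg-AMC after enzyme–compound mixing.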

Chain of human Cat S (P25774 115-331): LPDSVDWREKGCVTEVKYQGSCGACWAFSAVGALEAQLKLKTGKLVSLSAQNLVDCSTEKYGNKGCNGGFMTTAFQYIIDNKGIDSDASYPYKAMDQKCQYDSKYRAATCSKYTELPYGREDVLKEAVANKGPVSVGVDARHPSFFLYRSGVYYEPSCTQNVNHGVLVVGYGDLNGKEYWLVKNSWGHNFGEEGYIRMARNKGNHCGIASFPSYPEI

| Compound | IC50 |
| --- | --- |
| N#CC1(NC(=O)[C@@H]2C[C@@H](S(=O)(=O)c3ccc(-n4ccnn4)cc3C(F)(F)F)CN2C(=O)C2(C(F)(F)F)CC2)CC1 [Example 54, (2S,4R)-4-(4-[1,2,3]Triazol-1-yl-2-trifluoromethyl-benzenesulfonyl)-1-(1-trifluoromethyl-cyclopropanecarbonyl)-pyrrolidine-2-carboxylic acid (1-cyano-cyclopropyl)-amide] | 0.382 nM |
| Cc1noc(C)c1-c1ccc(S(=O)(=O)[C@@H]2C[C@@H](C(=O)NC3(C#N)CC3)N(C(=O)C3(C(F)(F)F)CC3)C2)cc1 [Example 55, (2S,4R)—N-(1-cyanocyclopropyl)-4-(4-(3,5-dimethylisoxazol-4-yl)phenylsulfonyl)-1-(1-(trifluoromethyl)cyclopropanecarbonyl)pyrrolidine-2-carboxamide] | 1.44 nM |
| N#CC1(NC(=O)[C@@H]2C[C@@H](S(=O)(=O)c3ccc(-c4cnn(C(F)F)c4)cc3C(F)(F)F)CN2C(=O)C2(C(F)(F)F)CC2)CC1 [Example 56, (2S,4R)-4-[4-(1-Difluoromethyl-1Hpyrazol-4-yl)-2-trifluoromethyl-benzenesulfonyl]-1-(1-trifluoromethyl-cyclopropanecarbonyl)-pyrrolidine-2-carboxylic acid (1-cyano-cyclopropyl)-amide] | 0.526 nM |
| Cc1nnn(-c2ccc(S(=O)(=O)[C@@H]3C[C@@H](C(=O)NC4(C#N)CC4)N(C(=O)C4(C(F)(F)F)CC4)C3)c(C(F)(F)F)c2)n1 [Example 57, (2S,4R)-4-[4-(5-Methyl-tetrazol-2-yl)-2-trifluoromethyl-benzenesulfonyl]-1-(1-trifluoromethyl-cyclopropanecarbonyl)-pyrrolidine-2-carboxylic acid (1-cyano-cyclopropyl)-amide] | 0.564 nM |
| N#CC1(NC(=O)[C@@H]2C[C@@H](S(=O)(=O)c3ccc(-c4c[nH]nc4C(F)(F)F)cc3C(F)(F)F)CN2C(=O)C2(C(F)(F)F)CC2)CC1 [Example 58, (2S,4R)-1-(1-Trifluoromethyl-cyclopropanecarbonyl)-4-[2-trifluoromethyl-4-(3-trifluoromethyl-1Hpyrazol-4-yl)-benzenesulfonyl]-pyrrolidine-2-carboxylic acid (1-cyano-cyclopropyl)-amide] | 2.42 nM |
| Cc1cc(-c2ccccc2CO)ccc1S(=O)(=O)[C@@H]1C[C@@H](C(=O)NC2(C#N)CC2)N(C(=O)C2(C(F)(F)F)CC2)C1 [Example 59, (2S,4R)—N-(1-cyanocyclopropyl)-4-(2′-(hydroxymethyl)-3-methylbiphenyl-4-ylsulfonyl)-1-(1-(trifluoromethyl)cyclopropanecarbonyl)pyrrolidine-2-carboxamide] | 0.943 nM |
| Cc1nc(C)c(-c2ccc(S(=O)(=O)[C@@H]3C[C@@H](C(=O)NC4(C#N)CC4)N(C(=O)C4(C(F)(F)F)CC4)C3)c(C)c2)s1 [Example 60, (2S,4R)—N-(1-cyanocyclopropyl)-4-(4-(2,4-dimethylthiazol-5-yl)-2-methylphenylsulfonyl)-1-(1-(trifluoromethyl)cyclopropanecarbonyl)pyrrolidine-2-carboxamide] | 0.614 nM |
| Cc1ncc(-c2ccc(S(=O)(=O)[C@@H]3C[C@@H](C(=O)NC4(C#N)CC4)N(C(=O)C4(C(F)(F)F)CC4)C3)c(C)c2)s1 [Example 61, (2S,4R)—N-(1-cyanocyclopropyl)-4-(2-methyl-4-(2-methylthiazol-5-yl)phenylsulfonyl)-1-(1-(trifluoromethyl)cyclopropanecarbonyl)pyrrolidine-2-carboxamide] | 0.613 nM |
| COc1ncc(-c2ccc(S(=O)(=O)[C@@H]3C[C@@H](C(=O)NC4(C#N)CC4)N(C(=O)C4(C(F)(F)F)CC4)C3)c(C)c2)cn1 [Example 62, (2S,4R)—N-(1-cyanocyclopropyl)-4-(4-(2-methoxypyrimidin-5-yl)-2-methylphenylsulfonyl)-1-(1-(trifluoromethyl)cyclopropanecarbonyl)pyrrolidine-2-carboxamide] | 0.592 nM |
| Cc1ncc(-c2ccc(S(=O)(=O)[C@@H]3C[C@@H](C(=O)NC4(C#N)CC4)N(C(=O)C4(C(F)(F)F)CC4)C3)c(C(F)(F)F)c2)s1 [Example 63, (2S,4R)-4-[4-(2-Methyl-thiazol-5-yl)-2-trifluoromethyl-benzenesulfonyl]-1-(1-trifluoromethyl-cyclopropanecarbonyl)-pyrrolidine-2-carboxylic acid (1-cyano-cyclopropyl)-amide] | 0.585 nM |
| Cc1cc(-c2c(C)noc2C)ccc1S(=O)(=O)[C@@H]1C[C@@H](C(=O)NC2(C#N)CC2)N(C(=O)C2(C(F)(F)F)CC2)C1 [Example 64, (2S,4R)—N-(1-cyanocyclopropyl)-4-(4-(3,5-dimethylisoxazol-4-yl)-2-methylphenylsulfonyl)-1-(1-(trifluoromethyl)cyclopropanecarbonyl)pyrrolidine-2-carboxamide] | 0.65 nM |
| Cc1cc(-n2cnc(Cl)n2)ccc1S(=O)(=O)[C@@H]1C[C@@H](C(=O)NC2(C#N)CC2)N(C(=O)C2(C(F)(F)F)CC2)C1 [Example 66, (2S,4R)-4-(4-(3-chloro-1H-1,2,4-triazol-1-yl)-2-methylphenylsulfonyl)-N-(1-cyanocyclopropyl)-1-(1-(trifluoromethyl)cyclopropanecarbonyl)pyrrolidine-2-carboxamide] | 223 nM |
| Cc1cc(-n2cnc(Cl)n2)ccc1S(=O)(=O)[C@@H]1C[C@H](C(=O)NC2(C#N)CC2)N(C(=O)C2(C(F)(F)F)CC2)C1 [Example 67, (2R,4R)-4-(4-(3-chloro-1H-1,2,4-triazol-1-yl)-2-methylphenylsulfonyl)-N-(1-cyanocyclopropyl)-1-(1-(trifluoromethyl)cyclopropanecarbonyl)pyrrolidine-2-carboxamide] | 542 nM |
| Cn1cc(-c2ccc(S(=O)(=O)[C@@H]3C[C@@H](C(=O)NC4(C#N)CC4)N(C(=O)C4(C(F)(F)F)CC4)C3)c(C(F)(F)F)c2)c(C(F)(F)F)n1 [Example 68, (2S,4R)-4-[4-(1-Methyl-3-trifluoromethyl-1Hpyrazol-4-yl)-2-trifluoromethyl-benzenesulfonyl]-1-(1-trifluoromethyl-cyclopropanecarbonyl)-pyrrolidine-2-carboxylic acid (1-cyano-cyclopropyl)-amide] | 0.829 nM |
| N#CC1(NC(=O)[C@@H]2C[C@@H](S(=O)(=O)c3ccc(-n4cnc(Cl)n4)cc3)CN2C(=O)C2(C(F)(F)F)CC2)CC1 [Example 69, (2S,4R)-4-(4-(3-chloro-1H-1,2,4-triazol-1-yl)phenylsulfonyl)-N-(1-cyanocyclopropyl)-1-(1-(trifluoromethyl)cyclopropanecarbonyl)pyrrolidine-2-carboxamide] | 497 nM |

From US10689339B2, “Pyrrolidine derivatives” (Hoffmann-La Roche Inc., priority 2016, dated 2020)
